Reference: patent US4727082A, “Dihydropyridine compounds and pharmaceutical compositions containing them” (Yamanouchi Pharmaceutical Co., Ltd., priority 1984, dated 1988)
Read-outs that look alike come from different tables or passages of the source.

How the values were obtained:
[1] = Hemodynamic effects in anesthetized open-chest dogs; format: in vivo, Mongrel dogs; conditions: Canis lupus familiaris; for change in vivo at 0.3 mg/kg: 0.3 mg/kg iv; for change in vivo at 0.1 mg/kg: 0.1 mg/kg iv; for change in vivo at 1 mg/kg: 1.0 mg/kg iv
Experimental: Mongrel dogs of either sex were anesthetized with pentobarbital sodium (30 mg/kg iv). The animals were artificially ventilated with room air. The chest was opened at the left 4th intercostal space. Mean arterial blood pressure (MBP), heart rate (HR), left ventricular pressure (LVP), max. dLVP/dt, mean pulmonary arterial blood pressure (MPAP), cardiac output (CO) and coronary blood flow (Cor. BF) were measured. The test compounds were injected into the femoral vein. Hemodynamic effects of these compounds were compared with that of well known Ca^2+ -antagonists. Table 1 (column 1) indicates the percent changes of MBP and Cor. BF from control values induced by intravenous injection of test compounds.

coronary artery = experiment: Coronary vasodilating effects, intracoronary injection in anesthetized dogs; format: in vivo, Mongrel dogs; conditions: for Duration of action of coronary vasodilating effect: intracoronary injection; for ED100 pap (dose for 100% increase of Cor. BF): intracoronary, maximum response to papaverine 300 μg ia = 100%
Experimental: Mongrel dogs of either sex were anesthetized and ventilated as previously described. A thoracotomy was performed at the 4th intercostal space. Following an intravenous injection of […] (1000 units/kg), blood from the distal end of the cannulated carotid artery was pumped into circumflex branch of the left coronary artery using a servocontrolled peristaltic pump which maintained a constant perfusion pressure of 120 mmHg by means of a pump controller. An electromagnetic flow probe was inserted in the circuit to record blood flow through the cannulated coronary artery. The test compounds were administered directly into the rubber tubing connected close to the coronary artery cannula. Coronary vasodilating potency of the test compounds was by calculating the dose required to produce 100% increase of Cor. BF (ED100 pap), when the maximum responses to papaverine at a dose of 300 μg ia was expressed at 100% response.

Beta-adrenoceptor [2] = target: T1, Beta-adrenoceptor (Rattus norvegicus, UniProt P18090); experiment: Beta-adrenoceptor blocking effects: blockade of positive chronotropic response to isoproterenol; format: in vivo, male Wistar rats; conditions: read-out: Beta Blocking ED50
T1 construct: from tissue; host or cells: heart in situ of anesthetized male Wistar rats (in vivo, i.v. dosing)
T1 sequence (P18090 whole entry): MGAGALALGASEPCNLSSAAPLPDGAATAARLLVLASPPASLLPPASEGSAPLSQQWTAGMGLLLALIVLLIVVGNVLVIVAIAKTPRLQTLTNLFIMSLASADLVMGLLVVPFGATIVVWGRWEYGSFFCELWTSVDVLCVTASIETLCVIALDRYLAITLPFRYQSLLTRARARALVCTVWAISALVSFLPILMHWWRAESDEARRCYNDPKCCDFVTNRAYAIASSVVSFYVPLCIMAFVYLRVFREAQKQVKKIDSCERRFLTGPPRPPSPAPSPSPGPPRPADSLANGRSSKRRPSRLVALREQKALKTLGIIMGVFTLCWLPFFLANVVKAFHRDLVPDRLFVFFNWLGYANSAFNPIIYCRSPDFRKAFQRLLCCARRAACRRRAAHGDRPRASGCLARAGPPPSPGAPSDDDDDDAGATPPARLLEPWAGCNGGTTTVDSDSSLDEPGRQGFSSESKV
Experimental: (§1) The rats were pretreated with reserpine (8 mg/kg ip), 18 hr before experiments. […] The heart rate was measured with a cardiotachometer triggered by the QRS of the ECG (lead II) and recorded on a polygraph. After the control response to isoproterenol at a dose of 0.1 μg/kg iv was obtained, the test compound was injected iv in increasing doses at 20 min intervals.

Beta-adrenoceptor [3] = target: T1, Beta-adrenoceptor; experiment: Intrinsic sympathomimetic activity (ISA), increase in heart rate; format: in vivo, male Wistar rats; conditions: increase in HR, reserpinized rats, iv
Experimental: as §1
In this series of experiments, intrinsic sympathomimetic activity (ISA) was also evaluated. The results are shown in Table 1 (column 4), wherein "-" represents that an increase in HR was scarcely observed, "+" represents an increase in HR of 10 to 19 beats/min, "++" represents an increase in HR of 20 to 29 beats/min, and "+++" represents an increase in HR of above 30 beats/min.

[4] = read-out: Cor. BF, percent change from control
[5] = read-out: MBP, percent change from control
[6] = 50% blockade of chronotropic response to isoproterenol 0.1 μg/kg iv, reserpinized, vagotomized rats, cumulative dose

Row | Structure (SMILES) | change in vivo at 0.3 mg/kg [1, 4] [%] | change in vivo at 0.3 mg/kg [1, 5] [%] | Duration of action of coronary vasodilating effect (coronary artery) [min] | ED100 pap (dose for 100% increase of Cor. BF) (coronary artery) [μg ia] | change in vivo at 0.1 mg/kg [1, 4] [%] | change in vivo at 0.1 mg/kg [1, 5] [%] | ED50 (Beta-adrenoceptor [2]; [6]) [mg/kg] | ISA (Beta-adrenoceptor [3]) | change in vivo at 1 mg/kg [1, 4] [%] | change in vivo at 1 mg/kg [1, 5] [%] | ED50 (Beta-adrenoceptor [2]; iv) [mg/kg]
1 | COc1ccc([C@@H]2Sc3ccccc3N(CCN(C)C)C(=O)[C@@H]2OC(C)=O)cc1 [Diltiazem, reference compound] | 90 | -30 | 20 | 51 |  |  |  |  |  |  | 
2 | COC(=O)C1=C(C)NC(C)=C(C(=O)OC)C1c1cc([N+](=O)[O-])ccc1OCCNCC(O)COc1ccccc1 (stereo not drawn) [Example 1, dimethyl 4-[2-[2-(2-hydroxy-3-phenoxypropylamino)ethoxy]-5-nitrophenyl]-2,6-dimethyl-1,4-dihydropyridine-3,5-dicarboxylate] | 69 | -17 | 15 | 75 | 21 | -7 | 0.13 | +++ (an increase in HR of above 30 beats/min) |  |  | 
3 | COC(=O)C1=C(C)NC(C)=C(C(=O)OC)C1c1cc([N+](=O)[O-])ccc1OCCCNCC(O)COc1ccccc1 (stereo not drawn) [Example 8, dimethyl 4-[2-[3-(2-hydroxy-3-phenoxypropylamino)propoxy]-5-nitrophenyl]-2,6-dimethyl-1,4-dihydropyridine-3,5-dicarboxylate] |  |  | 60 | 645 |  |  | 0.31 | + (an increase in HR of 10 to 19 beats/min) | 10 | -29 | 
4 | CCOC(=O)C1=C(C)NC(C)=C(C(=O)OC)C1c1cc([N+](=O)[O-])ccc1OCCCCNCC(O)COc1ccccc1 (stereo not drawn) [Example 10, ethyl methyl 4-[2-[4-(2-hydroxy-3-phenoxypropylamino)butoxy]-5-nitrophenyl]-2,6-dimethyl-1,4-dihydropyridine-3,5-dicarboxylate] | 26 | -12 | > 60 | 400 |  |  | 0.73 | - |  |  | 
5 | COC(=O)C1=C(C)NC(C)=C(C(=O)OC)C1c1cc([N+](=O)[O-])ccc1OCCCCCNCC(O)COc1ccccc1 (stereo not drawn) [Example 12, dimethyl 4-[2-[5-(2-hydroxy-3-phenoxypropylamino)pentyloxy]-5-nitrophenyl]-2,6-dimethyl-1,4-dihydropyridine-3,5-dicarboxylate] | 14 | -18 | > 60 | 475 |  |  | 2.58 | - |  |  | 
6 | COC(=O)C1=C(C)NC(C)=C(C(=O)OC)C1c1cc([N+](=O)[O-])ccc1OCCCCNCC(O)COc1ccccc1 (stereo not drawn) [Example 15, dimethyl 4-[2-[4-(2-hydroxy-3-phenoxypropylamino)butoxy]-5-nitrophenyl]-2,6-dimethyl-1,4-dihydropyridine-3,5-dicarboxylate] |  |  | > 60 | 228 |  |  | 0.7 | - | 96 | -33 | 
7 | COC(=O)C1=C(C)NC(C)=C(C(=O)OC)C1c1cc([N+](=O)[O-])ccc1OCCCCNC[C@H](O)COc1ccccc1 [Example 16, (S)-(-)-dimethyl 4-[2-[4-(2-hydroxy-3-phenoxypropylamino)butoxy]-5-nitrophenyl]-2,6-dimethyl-1,4-dihydropyridine-3,5-dicarboxylate] |  |  | > 60 | 162 |  |  | 0.39 | - | 97 | -31 | 
8 | COC(=O)C1=C(C)NC(C)=C(C(=O)OC)C1c1cc([N+](=O)[O-])ccc1OCCCCNC[C@@H](O)COc1ccccc1 [Example 17, (R)-(+)-dimethyl 4-[2-[4-(2-hydroxy-3-phenoxypropylamino)butoxy]-5-nitrophenyl]-2,6-dimethyl-1,4-dihydropyridine-3,5-dicarboxylate] |  |  | > 60 | 158 |  |  | 3.53 | - | 94 | -35 | 
9 | CCOC(=O)C1=C(C)NC(C)=C(C(=O)OCC)C1c1cc([N+](=O)[O-])ccc1OCCCCNCC(O)COc1ccccc1 (stereo not drawn) [Example 18, diethyl 4-[2-[4-(2-hydroxy-3-phenoxypropylamino)butoxy]-5-nitrophenyl]-2,6-dimethyl-1,4-dihydropyridine-3,5-dicarboxylate] | 20 | -13 | 60 | 285 |  |  | 3.11 | - |  |  | 
10 | COC(=O)C1=C(C)NC(C)=C(C(=O)OC)C1c1cc(S(C)(=O)=O)ccc1OCCCCNCC(O)COc1ccccc1 (stereo not drawn) [Example 23, dimethyl 4-[2-[4-(2-hydroxy-3-phenoxypropylamino)butoxy]-5-methylsulfonylphenyl]-2,6-dimethyl-1,4-dihydropyridine-3,5-dicarboxylate] |  |  | > 60 | 780 |  |  | 0.03 | - | 64 | -32 | 
11 | COC(=O)C1=C(C)NC(C)=C(C(=O)OC)C1c1cc(Cl)ccc1OCCCCNCC(O)COc1ccccc1 (stereo not drawn) [Example 24, dimethyl 4-[5-chloro-2-[4-(2-hydroxy-3-phenoxypropylamino)butoxy]phenyl]-2,6-dimethyl-1,4-dihydropyr idine-3,5-dicarboxylate] |  |  | 60 | 245 |  |  | 1.5 | - | 62 | -33 | 
12 | COC(=O)C1=C(C)NC(C)=C(C(=O)OC)C1c1cc(OC)ccc1OCCCCNCC(O)COc1ccccc1 (stereo not drawn) [Example 26, dimethyl 4-[2-[4-(2-hydroxy-3-phenoxypropylamino)butoxy]-5-methoxyphenyl]-2,6-dimethyl-1,4-dihydropyridine-3,5-dicarboxylate] |  |  | 40 | 600 |  |  | 0.53 | - | 43 | -38 | 
13 | COC(=O)C1=C(C)NC(C)=C(C(=O)OC)C1c1cc(SC)ccc1OCCCCNCC(O)COc1ccccc1.Cl (stereo not drawn) [Example 28, dimethyl 4-[2-[4-(2-hydroxy-3-phenoxypropylamino)butoxy]-5-methylthiophenyl]-2,6-dimethyl-1,4-dihydropyridine-3,5-dicarboxylate hydrochloride] |  |  | 30 | 555 |  |  |  | - | 70 | -28 | 0.27
14 | COC(=O)C1=C(C)NC(C)=C(C(=O)OC)C1c1ccccc1OCCCCNCC(O)COc1ccccc1 (stereo not drawn) [Example 34, dimethyl 4-[o-[4-(2-hydroxy-3-phenoxypropylamino)butoxy]phenyl]-2,6-dimethyl-1,4-dihydropyridine-3,5-dicarboxylate] | 3 | -18 | > 60 | 175 |  |  | 0.9 | - |  |  | 
15 | COC(=O)C1=C(C)NC(C)=C(C(=O)OC)C1c1cc([N+](=O)[O-])ccc1OCCCCNCC(O)COc1ccc(NC(C)=O)cc1 (stereo not drawn) [Example 42, dimethyl 4-[2-[4-[3-(p-acetamidophenoxy)-2-hydroxypropylamino]butoxy]-5-nitrophenyl]-2,6-dimethyl-1,4-dihydropyridine-3,5-dicarboxylate] |  |  | > 60 | 515 |  |  | 0.5 | - | 8 | -13 | 
